Data on 3 molecules can be found in patent US10765680B2, “Combination of a MCL-1 inhibitor and a taxane compound, uses and pharmaceutical compositions thereof” (priority 2017, dated 2020).

Assay [1] relates to MDA-MB-453 breast cancer cell line. Put plainly: 3 days CellTiterGlo viability, checkerboard combination, MDA-MB-453. Type of assay: cell-based. The note with it: single agent. The method, then: (§1) In addition, all media contained penicillin (100 IU/ml), streptomycin (100 μg/ml) and L-glutamine (2 mM).
(§2) Cell lines were cultured at 37° C. in a humidified atmosphere containing 5% CO2 and expanded in T-150 flasks. In all cases cells were thawed from frozen stocks, expanded through ≥1 passage using appropriate dilutions, counted and assessed for viability using a CASY cell counter prior to plating 150 μl/well at the densities indicated in Table 2 into 96-well plates.
(§3) Stock solutions of compounds were prepared at a concentration of 5 mM in DMSO and stored at −20° C.
(§4) In order to analyze the activity of the compounds in single agent or in combination, cells were seeded and treated with seven or eight 3.16-fold serial dilutions of each compound dispensed, either individually or in all possible permutations in a checkerboard fashion, directly into the cell assay plates as indicated in FIGS. 5 and 6. Effects of the single agents as well as their checkerboard combinations on cell viability were assessed after 3 days of incubation at 37° C./5% CO2 by quantification of cellular ATP levels using CellTiterGlo at 75 μL reagent/well. At least two independent experiments, each one performed in duplicates, were performed. Luminescence was quantified on a multipurpose plate reader.
(§5) Single agent IC50s were calculated using standard four-parametric curve fitting. Potential synergistic interactions between compound combinations were assessed using the Excess Inhibition 2D matrix according to the Loewe additivity model and are reported as Synergy Score (Lehar et al. 2009). All calculations were performed using Clalice™ Bioinformatics Software available in Horizon website.

Assay [2] has as its system MDA-MB-468 breast cancer cell line. Put plainly: 3 days CellTiterGlo viability, checkerboard combination, MDA-MB-468. The settings on record: single agent. The assay is classed as cell-based. As for the experimental part:
as §1, §2, §3, §4, §5
(Cellular ATP, detected with luciferase, serves as a proxy for viable cell number.)

The test system of assay [3] is H522 lung cancer cell line. Put plainly: 3 days CellTiterGlo viability, checkerboard combination, H522. The settings on record: single agent. The assay is classed as cell-based. As for the experimental part: as §1, §2, §3, §4, §5
Assay [4] relates to 2 breast cancer cell lines (MDA-MB-453 and MDA-MB-468) and one lung cancer cell line (H522). Put plainly: 3 days CellTiterGlo viability, summary of the three cell lines. The assay is classed as cell-based. The note with it: for cell lines tested whose growth was inhibited by the single agent: three cell lines tested. The method, then:
as §1, §2, §3, §4, §5

The subject of assay [5] is TNBC PDX models 110T, 838T and PDX OD-BRE-0589. The settings on record: Compound 2 25 mg/kg i.v. weekly for six weeks; three TNBC PDX models.
Assay [6] relates to BT-20 breast cancer cell line. Nature of the assay: 72 hours CellTiter-Glo proliferation assay, BT-20. Type of assay: cell-based. The note with it: Homo sapiens, single agent, read-out: Abs IC50. As for the experimental part: (§6) Compounds were dissolved in 100% DMSO (Sigma, Catalog # D2438-50 ML) at a stock concentration of 10 mM and stored at −20° C. until use. Compounds were arrayed in 2 ml deep 96-well plates (Greiner bio-one, catalog number 780271) serially diluted 3-fold. Compound 1 was used over a concentration range of 0.0-10.0 μM. Paclitaxel was used over a concentration range of 0.0-1.0 μM in breast cancer cells and 0.0-2.0 μM range in lung cancer cells.
(§7) All cell lines were purchased from the American Type Culture Collection and cultured according to vendor recommendations. […] All cell lines were determined to be free of mycoplasma contamination by a PCR detection assay performed at Idexx Radil (Columbia, Mo., USA) and authenticated by SNP analysis. […] Cells were expanded to T-75 flasks and assessed for viability using a Beckman-Coulter ViCell counter prior to plating. […]
(§8) Cell proliferation was measured in 72 hours CellTiter-Glo™ (CTG) assays and all results shown are the result of at least triplicate measurements. […] After 72 hours of compound treatment the effects of compounds on cell proliferation was determined using the CellTiter-Glo™ Luminescent Cell Viability Assay (Promega, Catalog # G7573). This is a homogeneous method to determine the number of viable cells in culture based on quantitation of the ATP present, which signals the presence of metabolically active cells. […]

The test system of assay [7] is BT-474 breast cancer cell line. Put plainly: 72 hours CellTiter-Glo proliferation assay, BT-474. The note with it: Homo sapiens, single agent, read-out: Abs IC50. Type of assay: cell-based. The method, then: as §6, §7, §8
Assay [8] concerns BT-549 breast cancer cell line. Put plainly: 72 hours CellTiter-Glo proliferation assay, BT-549. The settings on record: Homo sapiens, single agent, read-out: Abs IC50. Type of assay: cell-based. As for the experimental part: as §6, §7, §8
The test system of assay [9] is Cal-148 breast cancer cell line. Put plainly: 72 hours CellTiter-Glo proliferation assay, Cal-148. Type of assay: cell-based. The note with it: Homo sapiens, single agent, read-out: Abs IC50. As for the experimental part:
as §6, §7, §8

The subject of assay [10] is HCC1143 breast cancer cell line. Put plainly: 72 hours CellTiter-Glo proliferation assay, HCC1143. The assay is classed as cell-based. The settings on record: Homo sapiens, single agent, read-out: Abs IC50. As for the experimental part: as §6, §7, §8
Assay [11] deals with HCC1395 breast cancer cell line. Nature of the assay: 72 hours CellTiter-Glo proliferation assay, HCC1395. Type of assay: cell-based. The note with it: Homo sapiens, single agent, read-out: Abs IC50. As for the experimental part:
as §6, §7, §8

Assay [12] relates to HCC1500 breast cancer cell line. Put plainly: 72 hours CellTiter-Glo proliferation assay, HCC1500. The assay is classed as cell-based. The note with it: single agent, read-out: Abs IC50. As for the experimental part: as §6, §7, §8
For assay [13], the system named is HCC1937 breast cancer cell line. Put plainly: 72 hours CellTiter-Glo proliferation assay, HCC1937. Type of assay: cell-based. The settings on record: Homo sapiens, single agent, read-out: Abs IC50. The method, then: as §6, §7, §8
For assay [14], the system named is HCC1954 breast cancer cell line. Put plainly: 72 hours CellTiter-Glo proliferation assay, HCC1954. Type of assay: cell-based. The settings on record: Homo sapiens, single agent, read-out: Abs IC50. As for the experimental part: as §6, §7, §8
Assay [15] concerns HCC38 breast cancer cell line. Nature of the assay: 72 hours CellTiter-Glo proliferation assay, HCC38. Type of assay: cell-based. The settings on record: Homo sapiens, single agent, read-out: Abs IC50. As for the experimental part: as §6, §7, §8
The test system of assay [16] is HCC70 breast cancer cell line. Put plainly: 72 hours CellTiter-Glo proliferation assay, HCC70. The assay is classed as cell-based. The note with it: Homo sapiens, single agent, read-out: Abs IC50. As for the experimental part:
as §6, §7, §8

The subject of assay [17] is Hs 578T breast cancer cell line. Nature of the assay: 72 hours CellTiter-Glo proliferation assay, Hs 578T. The settings on record: Homo sapiens, single agent, read-out: Abs IC50. The assay is classed as cell-based. As for the experimental part:
as §6, §7, §8

The test system of assay [18] is MCF7 breast cancer cell line. Nature of the assay: 72 hours CellTiter-Glo proliferation assay, MCF7. Type of assay: cell-based. The note with it: Homo sapiens, single agent, read-out: Abs IC50. The method, then: as §6, §7, §8
Assay [19] relates to MDA-MB-157 breast cancer cell line. Put plainly: 72 hours CellTiter-Glo proliferation assay, MDA-MB-157. Type of assay: cell-based. The note with it: Homo sapiens, single agent, read-out: Abs IC50. As for the experimental part:
as §6, §7, §8

In assay [20] the test system is MDA-MB-231 breast cancer cell line. Nature of the assay: 72 hours CellTiter-Glo proliferation assay, MDA-MB-231. The assay is classed as cell-based. The settings on record: Homo sapiens, single agent, read-out: Abs IC50. As for the experimental part: as §6, §7, §8
Assay [21] deals with MDA-MB-436 breast cancer cell line. Put plainly: 72 hours CellTiter-Glo proliferation assay, MDA-MB-436. The assay is classed as cell-based. The note with it: Homo sapiens, single agent, read-out: Abs IC50. As for the experimental part: as §6, §7, §8
In assay [22] the test system is MDA-MB-453 breast cancer cell line. Nature of the assay: 72 hours CellTiter-Glo proliferation assay, MDA-MB-453. The assay is classed as cell-based. The settings on record: Homo sapiens, single agent, read-out: Abs IC50. As for the experimental part: as §6, §7, §8
Assay [23] relates to MDA-MB-468 breast cancer cell line. Put plainly: 72 hours CellTiter-Glo proliferation assay, MDA-MB-468. The note with it: Homo sapiens, single agent, read-out: Abs IC50. Type of assay: cell-based. As for the experimental part: as §6, §7, §8
Assay [24] concerns SK-BR-3 breast cancer cell line. Put plainly: 72 hours CellTiter-Glo proliferation assay, SK-BR-3. The note with it: Homo sapiens, single agent, read-out: Abs IC50. The assay is classed as cell-based. The method, then: as §6, §7, §8
Assay [25] relates to NCI-H522 lung cancer cell line. Nature of the assay: 72 hours CellTiter-Glo proliferation assay, NCI-H522. The settings on record: Homo sapiens, single agent, read-out: Abs IC50. Type of assay: cell-based. The method, then: as §6, §7, §8
The test system of assay [26] is NCI-H23 lung cancer cell line. Put plainly: 72 hours CellTiter-Glo proliferation assay, NCI-H23. The assay is classed as cell-based. The note with it: Homo sapiens, single agent, read-out: Abs IC50. The method, then: as §6, §7, §8
Assay [27] deals with A549 lung cancer cell line. Nature of the assay: 72 hours CellTiter-Glo proliferation assay, A549. Type of assay: cell-based. The settings on record: Homo sapiens, single agent, read-out: Abs IC50. As for the experimental part: as §6, §7, §8
Another assay has as its system MDA-MB-231 xenografts. Put plainly: MDA-MB-231 breast xenograft model, antitumor efficacy. The assay is classed as in vivo, female nude rats. The settings on record: paclitaxel 7.5 mg/kg iv QW.
For another assay, the system named is SK-BR-3 cells. Nature of the assay: SK-BR-3 viability (Cell Titer Glo, propidium iodide), Bliss synergy. Type of assay: cell-based. The note with it: QVD-OPh 10 μM, propidium iodide staining, 72 hours.

Each structure is given as a SMILES string.

As for `Cc1c(-c2c(-c3ccc(F)o3)sc3ncnc(O[C@H](Cc4ccccc4OCc4ccnn4CC(F)(F)F)C(=O)O)c23)ccc(OCCN2CCN(C)CC2)c1Cl` [Compound 2, (2R)-2-{[(5Sa)-5-{3-chloro-2-methyl-4-[2-(4-methylpiperazin-1-yl)ethoxy]phenyl}-6-(5-fluorofuran-2-yl)thieno[2,3-d]pyrimidin-4-yl]oxy}-3-(2-{[1-(2,2,2-trifluoroethyl)-1H-pyrazol-5-yl]methoxy}phenyl)propanoic acid], the IC50 in [1] is over 2000 nM; in assay [2], over 2000 nM; in assay [3] (H522 cell line), 140 nM. Besides, the “Mean of Max Inh” value stood at 21.0% in assay [1]; 24.0% in assay [2]; 92.0% in [3] (H522, 3 days). In addition, the “cell lines tested whose growth was inhibited by the single agent” value in [4] is given as 1/3. Besides, in [5], the “inhibition of tumor growth, single agent” value is on record as “insufficient in inhibiting tumor growth”.

For the molecule `CC(=O)O[C@H]1C(=O)[C@@]2(C)[C@H]([C@H](OC(=O)c3ccccc3)[C@]3(O)C[C@H](OC(=O)[C@H](O)[C@@H](NC(=O)c4ccccc4)c4ccccc4)C(C)=C1C3(C)C)[C@]1(OC(C)=O)CO[C@@H]1C[C@@H]2O` [Paclitaxel, paclitaxel, reference compound], the IC50 worked out at 5.97 nM in [6]; 1.7 nM in assay [7]; 8.82 nM in assay [8]; 4.25 nM in assay [9]; 9.43 nM in [10]; 8.03 nM in assay [11]. Besides, the IC50 in assay [12] was over 1000 nM; in [13], 11.6 nM; in [14] it was 6.5 nM; in assay [15] it was 4.33 nM; in [16], 8.39 nM; in assay [17] it was 0.363 nM. The IC50 was 10.4 nM in [18]; over 1000 nM in assay [19]; 17.5 nM in [20]; 14.7 nM in [21]; 4.2 nM in [22]; 3.07 nM in assay [23]. Further, the IC50 in assay [24] is 2.66 nM; in [25], 0.48 nM; in [26], 0.22 nM; in [27], 0.163 nM; in [1] (Homo sapiens, 72 h) it was over 1000 nM; in [2] (Homo sapiens, 72 h), 0.9 nM. Further, the IC50 was 0.2 nM in assay [3] (Homo sapiens, NCI-H522, 72 h, H522, 3 days) and under 1 nM in assay [4] (single agent, 2/3 lines tested, read-out: IC50 in the cell lines inhibited). Also, the “Mean of Max Inh” value came to 37.0% in assay [1]; 75.0% in [2]; 61.0% in assay [3] (H522, 3 days). Besides, the “cell lines tested whose growth was inhibited by the single agent” value in [4] is 2/3. Besides, the T/C % in the assay on MDA-MB-231 xenografts was determined as 34%.

Regarding `CC(C)[C@H](NC(=O)c1ccc2ccccc2n1)C(=O)N[C@@H](CC(=O)O)C(=O)COc1c(F)cccc1F` [QVD-OPH, QVD-OPh hydrate], in the assay with SK-BR-3 cells, the “effect on cell death induced by docetaxel and Compound 2” value is on record as “efficiently blocked cell death”.

As usually defined, the IC50 is the midpoint of a concentration-inhibition curve.
